Measured values from US20180155344A1, “TRICYCLIC PIPERIDINE COMPOUNDS” (ACTELION PHARMACEUTICALS LTD, priority 2015, published 2018).

Molecular target: T1, human TPH1 (Homo sapiens, UniProt P17752)
T1 sequence (P17752 1-444): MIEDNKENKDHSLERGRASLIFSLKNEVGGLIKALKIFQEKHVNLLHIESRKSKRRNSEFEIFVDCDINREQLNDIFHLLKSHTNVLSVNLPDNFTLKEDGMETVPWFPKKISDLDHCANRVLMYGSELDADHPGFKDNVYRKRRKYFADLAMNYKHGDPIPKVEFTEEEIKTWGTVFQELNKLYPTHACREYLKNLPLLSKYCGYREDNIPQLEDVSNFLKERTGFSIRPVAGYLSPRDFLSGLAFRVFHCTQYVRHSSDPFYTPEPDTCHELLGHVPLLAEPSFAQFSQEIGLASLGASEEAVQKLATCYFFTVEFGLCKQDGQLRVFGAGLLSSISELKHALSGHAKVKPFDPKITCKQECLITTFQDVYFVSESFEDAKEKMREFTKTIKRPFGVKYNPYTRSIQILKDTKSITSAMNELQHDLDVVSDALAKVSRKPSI
Test: biochemical
Outline: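 Inhibition is derived from 5-hydroxy-L-tryptophan fluorescence (540 nm emission, 300 nm excitation) after perchloric acid stop, relative to DMSO vehicle. Recombinant full-length human enzyme (40-80 nM) reacts with 40 μM tryptophan plus 100 μM methyltetrahydropterin, pH 7.6 Tris/DTT/catalase, 15° C, 60 min.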

COc1ccc(C2c3c(nc4cc(C(F)(F)F)ccn34)CCN2C(=O)COc2ccc3ccccc3c2)cc1O (centres unmarked) [Example 3.9.1, 1-(1-(3-hydroxy-4-methoxyphenyl)-7-(trifluoromethyl)-3,4-dihydroimidazo[1,2-a:5,4-c′]dipyridin-2(1H)-yl)-2-(naphthalen-2-yloxy)ethan-1-one]
IC50: 0.045 µM

Cc1ccc(C2c3c(nc4cc(C(F)(F)F)ccn34)CCN2C(=O)COc2ccc3ccccc3c2)cc1C (centres unmarked) [Example 3.10.1, 1-(1-(3,4-dimethylphenyl)-7-(trifluoromethyl)-3,4-dihydroimidazo[1,2-a:5,4-c′]dipyridin-2(1H)-yl)-2-(naphthalen-2-yloxy)ethan-1-one]
IC50: 0.033 µM

Cc1ccc(C2c3c(nc4cc(C(F)(F)F)ccn34)CCN2C(=O)COc2ccc(CN3CCOCC3)cc2Cl)cc1C (centres unmarked) [Example 3.10.2, 2-(2-chloro-4-(morpholinomethyl)phenoxy)-1-(1-(3,4-dimethylphenyl)-7-(trifluoromethyl)-3,4-dihydroimidazo[1,2-a:5,4-c′]dipyridin-2(1H)-yl)ethan-1-one]
IC50: 0.023 µM

Cc1ccc(C2c3c(nc4cc(C(F)(F)F)ccn34)CCN2C(=O)COc2cccnc2Cl)cc1C (centres unmarked) [Example 3.10.3, 2-((2-chloropyridin-3-yl)oxy)-1-(1-(3,4-dimethylphenyl)-7-(trifluoromethyl)-3,4-dihydroimidazo[1,2-a:5,4-c′]dipyridin-2(1H)-yl)ethan-1-one]
IC50: 0.239 µM

COc1cc(C2c3c(nc4cc(C(F)(F)F)ccn34)CCN2C(=O)COc2ccc3ccccc3c2)ccc1O (centres unmarked) [Example 3.11.1, 1-(1-(4-hydroxy-3-methoxyphenyl)-7-(trifluoromethyl)-3,4-dihydroimidazo[1,2-a:5,4-c′]dipyridin-2(1H)-yl)-2-(naphthalen-2-yloxy)ethan-1-one]
IC50: 0.318 µM

COc1ccc(C2c3c(nc4cc(C(F)(F)F)ccn34)CCN2C(=O)COc2ccc3ccccc3c2)cc1OC(F)F (centres unmarked) [Example 3.12.1, 1-(1-(3-(difluoromethoxy)-4-methoxyphenyl)-7-(trifluoromethyl)-3,4-dihydroimidazo[1,2-a:5,4-c′]dipyridin-2(1H)-yl)-2-(naphthalen-2-yloxy)ethan-1-one]
IC50: 0.041 µM

COc1ccc(C2c3c(nc4cc(C(F)(F)F)ccn34)CCN2C(=O)COc2ccc3ccccc3c2)cc1OC(F)(F)F (centres unmarked) [Example 3.13.1, 1-(1-(4-methoxy-3-(trifluoromethoxy)phenyl)-7-(trifluoromethyl)-3,4-dihydroimidazo[1,2-a:5,4-c′]dipyridin-2(1H)-yl)-2-(naphthalen-2-yloxy)ethan-1-one]
IC50: 0.075 µM

COc1cc(C2c3c(nc4cc(C(F)(F)F)ccn34)CCN2C(=O)COc2ccc3ccccc3c2)ccc1OC(F)F (centres unmarked) [Example 3.14.1, 1-(1-(4-(difluoromethoxy)-3-methoxyphenyl)-7-(trifluoromethyl)-3,4-dihydroimidazo[1,2-a:5,4-c′]dipyridin-2(1H)-yl)-2-(naphthalen-2-yloxy)ethan-1-one]
IC50: 0.106 µM

COc1cc(C2c3c(nc4cc(C(F)(F)F)ccn34)CCN2C(=O)COc2ccc3ccccc3c2)ccc1OCCN(C)C (centres unmarked) [Example 3.15.1, 1-(1-(4-(2-(dimethylamino)ethoxy)-3-methoxyphenyl)-7-(trifluoromethyl)-3,4-dihydroimidazo[1,2-a:5,4-c′]dipyridin-2(1H)-yl)-2-(naphthalen-2-yloxy)ethan-1-one]
IC50: 0.07 µM

O=C(COc1ccc2ccccc2c1)N1CCc2nc3cc(C(F)(F)F)ccn3c2C1c1ccc2c(c1)OCO2 (centres unmarked) [Example 3.16.1, 1-(1-(benzo[d][1,3]dioxol-5-yl)-7-(trifluoromethyl)-3,4-dihydroimidazo[1,2-a:5,4-c′]dipyridin-2(1H)-yl)-2-(naphthalen-2-yloxy)ethan-1-one]
IC50: 0.15 µM

O=C(COc1ccc2ccccc2c1)N1CCc2nc3cc(C(F)(F)F)ccn3c2C1c1ccc2c(c1)OCCO2 (centres unmarked) [Example 3.17.1, 1-(1-(2,3-dihydrobenzo[b][1,4]dioxin-6-yl)-7-(trifluoromethyl)-3,4-dihydroimidazo[1,2-a:5,4-c′]dipyridin-2(1H)-yl)-2-(naphthalen-2-yloxy)ethan-1-one]
IC50: 0.138 µM
